In publication PMC10517971, “An inverse agonist of orphan receptor GPR61 acts by a G protein-competitive allosteric mechanism” (Nature Communications, 2023):

Tests used:
hERG = hERG (Homo sapiens, UniProt Q12809); assay: hERG Binding Assay (fluorescence polarization, Cy3B N-desmethyl dofetilide); set-up: expressed in transfected cells; membrane homogenate used
Experimental: (§1) 67 black 384 well flat -bottomed polystyrene plates. Compound/vehicle or standard (5 µL) were added
(§2) 68 to wells followed by His -tagged BRD4 (10 µL; 40 nM final concentration in assay). Following a
(§3) 69 15 min incubation at room temperature a propri etary Cy5 -labelled probe molecule (5 µL; 2 nM
(§4) 70 final concentration in assay) was added. Following, an additional 16 h incubation at room
(§5) 71 temperature fluorescence polarization measurements were made using an Envision plate reader
(§6) 72 (Perkin Elmer, Waltham, MA, USA) and mP values were used for analysis .
(§7) 73 Acetylcholinesterase As say
(§8) 74 The assay described is based on Ellmans method, in which thiocholine produced by the action of
(§9) 75 acetylcholinesterase forms a yellow color with 5,5'- dithiobis(2- nitrobenzoic acid). The intensity
(§10) 76 of the product color, measured at 405 nm, is proportionate to the enzyme activity in the sample.
(§11) 77 To each well of a clear 96 polystyrene plate 90 µL enzyme solution (1mU/well) or phosphate
78 buffered saline (PBS) and 10 µL compound/standard or vehicle was added. The plate was […]
81 read at the 20 min time point. […]
100 at room temperature for 16 h. Fluorescence polarization measurements were made using an
101 Envision plate reader (Perkin Elmer, Waltham, M A, USA) and mP values were us ed for analysis.
102 Binding Ki values were determined using the Cheng- Prusoff equation (Ki = IC50/(1+L/Kd)), where […]

Acetylcholinesterase = Acetylcholinesterase (Homo sapiens, UniProt P22303); assay: Acetylcholinesterase Assay (Ellman); type: biochemical
Chain of Acetylcholinesterase (P22303 32-614, species assumed): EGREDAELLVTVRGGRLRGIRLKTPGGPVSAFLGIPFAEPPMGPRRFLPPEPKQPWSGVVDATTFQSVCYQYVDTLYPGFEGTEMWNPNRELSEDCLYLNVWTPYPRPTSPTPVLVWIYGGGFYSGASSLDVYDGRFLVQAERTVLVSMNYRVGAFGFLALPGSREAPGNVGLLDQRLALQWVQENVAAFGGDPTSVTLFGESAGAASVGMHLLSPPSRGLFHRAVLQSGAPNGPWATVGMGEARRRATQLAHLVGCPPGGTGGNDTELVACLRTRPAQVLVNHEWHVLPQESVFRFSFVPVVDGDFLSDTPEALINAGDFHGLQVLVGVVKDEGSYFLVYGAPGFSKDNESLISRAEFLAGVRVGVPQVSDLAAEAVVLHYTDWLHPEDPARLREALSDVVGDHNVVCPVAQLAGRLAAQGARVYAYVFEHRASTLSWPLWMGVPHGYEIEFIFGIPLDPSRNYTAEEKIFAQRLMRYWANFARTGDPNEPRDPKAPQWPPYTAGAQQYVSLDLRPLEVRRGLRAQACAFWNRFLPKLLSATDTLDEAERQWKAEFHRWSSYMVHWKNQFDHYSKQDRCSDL
Experimental: as §1, §2, §3, §4, §5, §6, §7, §8, §9, §10, §11
78 buffered saline (PBS) and 10 µL compound/standard or vehicle was added. The plate was
79 incubated at room temperature for 15 min. Subsequently 100 µL of substrate/detection reagent
80 (800 µM acetylthiocholine/1mM 5,5'- dithiobis(2- nitrobenzoic acid)) was added and the plate was
81 read at the 20 min time point.
83 Human embryonic kidney (HEK) cells stably transfected with a doxycycline inducible plasmid […]

Human PDE1B1 = Human PDE1B1 (Homo sapiens, UniProt Q01064); assay: Phosphodiesterase Assay (SPA); type: biochemical
Chain of Human PDE1B1 (Q01064 whole entry): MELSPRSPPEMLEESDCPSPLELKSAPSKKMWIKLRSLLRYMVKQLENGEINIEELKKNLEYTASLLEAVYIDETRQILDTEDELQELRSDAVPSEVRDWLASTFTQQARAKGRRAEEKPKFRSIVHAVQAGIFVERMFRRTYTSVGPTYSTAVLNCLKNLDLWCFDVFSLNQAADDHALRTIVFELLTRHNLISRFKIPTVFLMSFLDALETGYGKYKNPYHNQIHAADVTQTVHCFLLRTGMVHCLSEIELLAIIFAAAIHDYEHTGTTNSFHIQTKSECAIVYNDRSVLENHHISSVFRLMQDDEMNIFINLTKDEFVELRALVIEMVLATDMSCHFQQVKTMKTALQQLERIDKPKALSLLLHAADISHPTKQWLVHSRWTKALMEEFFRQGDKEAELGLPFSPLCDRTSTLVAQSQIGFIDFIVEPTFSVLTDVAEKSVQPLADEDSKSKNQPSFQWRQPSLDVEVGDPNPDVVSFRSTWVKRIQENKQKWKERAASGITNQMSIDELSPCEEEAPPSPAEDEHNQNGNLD

Chain of hERG (Q12809 whole entry): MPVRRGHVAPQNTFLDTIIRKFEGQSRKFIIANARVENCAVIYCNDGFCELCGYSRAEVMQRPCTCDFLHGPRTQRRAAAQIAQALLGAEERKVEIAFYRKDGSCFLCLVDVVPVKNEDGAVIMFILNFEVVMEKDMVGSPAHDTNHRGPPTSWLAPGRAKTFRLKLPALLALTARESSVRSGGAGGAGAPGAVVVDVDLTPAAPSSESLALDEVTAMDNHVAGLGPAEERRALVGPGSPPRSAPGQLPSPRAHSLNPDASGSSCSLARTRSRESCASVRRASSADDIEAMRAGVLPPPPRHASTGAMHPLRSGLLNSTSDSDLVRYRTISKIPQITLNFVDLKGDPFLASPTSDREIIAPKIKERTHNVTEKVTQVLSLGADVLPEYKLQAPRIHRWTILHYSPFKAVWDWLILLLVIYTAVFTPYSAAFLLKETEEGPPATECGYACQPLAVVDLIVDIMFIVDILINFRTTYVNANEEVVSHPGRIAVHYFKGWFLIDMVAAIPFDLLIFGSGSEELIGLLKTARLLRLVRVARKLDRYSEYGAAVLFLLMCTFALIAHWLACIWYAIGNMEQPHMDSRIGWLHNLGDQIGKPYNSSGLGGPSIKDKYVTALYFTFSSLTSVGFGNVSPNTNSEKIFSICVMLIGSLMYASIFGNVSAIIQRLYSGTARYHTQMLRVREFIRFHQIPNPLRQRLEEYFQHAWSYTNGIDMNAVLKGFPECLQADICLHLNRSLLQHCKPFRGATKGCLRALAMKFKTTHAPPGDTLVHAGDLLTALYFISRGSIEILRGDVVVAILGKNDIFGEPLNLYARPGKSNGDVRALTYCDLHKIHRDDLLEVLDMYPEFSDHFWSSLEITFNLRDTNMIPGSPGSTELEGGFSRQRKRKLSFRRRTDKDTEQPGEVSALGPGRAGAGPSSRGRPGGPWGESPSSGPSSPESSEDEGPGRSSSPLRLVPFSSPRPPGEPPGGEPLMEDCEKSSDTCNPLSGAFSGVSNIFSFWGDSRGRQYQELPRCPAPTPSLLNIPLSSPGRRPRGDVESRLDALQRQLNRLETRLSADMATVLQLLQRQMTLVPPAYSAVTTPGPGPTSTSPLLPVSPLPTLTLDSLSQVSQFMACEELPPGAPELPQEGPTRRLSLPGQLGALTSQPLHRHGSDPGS

SMILES: CCOc1cc(C)nc(N(CCOC)S(=O)(=O)c2ccc(NCc3c(F)cncc3F)nc2OC)n1 [Compound 1]
- Ki (hERG): > 80 µM
- IC50 (Acetylcholinesterase): > 50 µM
- IC50 (Human PDE1B1): > 40 µM
